According to patent US20220143061A1, “3'3'-CYCLIC DINUCLEOTIDES AND PRODRUGS THEREOF” (INSTITUTE OF ORGANIC CHEMISTRY AND BIOCHEMISTRY ASCR, V.V.I., priority 2019, published 2022):
Like-named read-outs stand apart in the source and are kept apart here.

Legend:
WT STING = target: T1, WT STING (Homo sapiens, UniProt Q86WV6, H232R); experiment: Differential Scanning Fluorimetry with WT STING; format: binding; details: thermal shift vs apoprotein; 150 μM CDN; truncated WT STING 0.1 mg/ml
T1 construct: 8xHis (N, cleaved yes); SUMO (N, cleaved yes); made in house
Description: (§1) Purified PCR products were cleaved with restriction enzymes BamHI (cat. #R0136S, NEB, Ipswich, USA) and NotI (cat. #R0189S, NEB, Ipswich, USA) and cloned into the pSUMO vector linearized with the identical enzymes.
(§2) DNase I (cat. #D5025, Sigma Aldrich, Czech Republic) and RNase A (cat. #R6513, Sigma Aldrich, Czech Republic) were added (final concentration 50 μg/ml) together with MgCl2 (final concentration 5 mmol·l^−1) to the homogenate and bacteria were lysed using French Press G-M™ High-Pressure Cell Press Homogenizer (1500 psi, 3 cycles). […] The resin was poured into a chromatography column, washed with 50 ml buffer A (50 mmol·l^−1 TrisCl (pH 8.0), 800 mmol·l^−1 NaCl, 3 mmol·l^−1 β-mercaptoethanol; 10% glycerol; 20 mmol·l^−1 imidazole) and 8-His-SUMO tagged STING proteins were eluted with 15 ml buffer A containing 300 mmol·l^−1 imidazole. […] Proteins were concentrated with Amicon® Ultra-15 10 K device (cat. #UFC901008, Merck Millipore, Billerica, USA) and flash frozen in liquid N2.
(§3) 20 μL solutions of the reaction mixtures were pipetted in triplicates into 96 well optical reaction plates and thermal denaturation of samples were performed on real time PCR cycler (LightCycler® 480 Instrument II—Roche, Basel, Switzerland). The first derivative of the thermal denaturation curves was performed to calculate denaturing temperatures of STING-CDN complexes and STING apoproteins. The thermal shift for each CDN was calculated by subtracting the average denaturing temperature of STING apoprotein from the average denaturing temperature of STING CDN complex.

AQ STING (G230A-R293Q) = target: T2, AQ STING (G230A-R293Q) (Homo sapiens, UniProt Q86WV6, G230A/H232R/R293Q); experiment: Differential Scanning Fluorimetry with AQ STING; format: binding; details: thermal shift vs apoprotein; 150 μM CDN; truncated AQ STING 0.1 mg/ml
T2 construct: 8xHis (N, cleaved yes); SUMO (N, cleaved yes); made in house
Description: as §1, §2, §3

[1] = target: T3, human wild type STING (WT STING) (Homo sapiens, UniProt Q86WV6, H232R); experiment: 293T WT STING standard reporter assay; format: cell-based; details: 293T wtSTING-FL cells, no digitonin, 7 hours; ISRE firefly luciferase; read-out: 293T WT STING EC50
T3 construct: host or cells: 293T cells (ATCC CRL-3216), stably double transfected with pUNO1-hSTING-WT and pGL64.27-4×ISRE
Source text: (§4) Two complementary oligonucleotides of the sequence […] […] […] […] […] The oligonucleotides were mixed in equal molar amounts, hybridized, and cleaved by restriction endonucleases HindIII (cat. #. R0104S, NEB, Ipswich, USA) and BglII (cat. #R0144S, NEB, Ipswich, USA). Ultimately, they were ligated into plasmid pGL4.27 (cat. #E6651, Promega, Madison, USA) linearized with the same enzymes. As result the sequence with four ISRE sites was placed upstream of the minimum promoter of firefly luciferase reporter gene.
(§5) After 5 minutes incubation at room temperature (RT), 250 μL of the mixture was added dropwise to the cells in one well. Cells were incubated 36 hours at 37° C. with 5% CO2, and then detached with 0.05% Trypsin and 0.22 g/L EDTA (both cat. #L0941, Biowest, Riverside, USA).
(§6) Transfected cells were seeded onto poly-D-lysine coated six well plates at density 50,000 cells per 1 cm^2 in DMEM medium with high glucose containing 10% heat inactivated FBS, 30 μg/mL blasticidin (cat. #ant-b1-05, InvivoGen, San Diego, USA), 0.06 mg/ml Penicillin G and 0.1 mg/ml Streptomycin Sulfate (both cat. #. L0018, Biowest, Riverside, USA). The medium was replenished every 3-4 days until visible colonies of cells resistant to blasticidin were formed.
(§7) Blasticidin resistant cells stably expressing WT STING were further transfected with pGL64.27-4×ISRE plasmid following the same procedure as described above. […] Homogeneous culture of stably double transfected cells was prepared by limiting dilution of cells in 96 well plates and wells with cells were selected that originated from a single cell.
The medium was removed the next day and three-fold serial dilutions of compounds in 100 μl medium were added to the cells. The plates were incubated for 7 hours at 37° C. with 5% CO2. Next 50 μl of the medium was removed from wells, and 30 μl of ONE-Glo™ Luciferase Assay System reagent (cat. #E6120, Promega, Madison, USA) was added to each well. Luminescence was read on Synergy H1 (Biotek, Winooski, USA).

[2] = system: peripheral blood mononuclear cell (PBMC); experiment: Peripheral blood mononuclear cell assay (cytokine levels); format: cell-based; details: 1 h with compound, wash, 15 hour incubation, average of one to four donors
Description: Selected compounds were tested in an in vitro peripheral blood mononuclear cell (PBMC) assay. […] Serially diluted tested compounds were added to wells in 50 μl of cultivation medium and cell were incubated with compounds for 1 h at 37° C. with 5% CO2. Plates with cells were then spun 500 g for 5 minutes and medium was removed. Cells were washed twice with the cell culture medium by the use of centrifugation and gently resuspended in 100 μl medium without compounds. After 15 hour incubation at 37° C. with 5% CO2, the cell culture medium was collected and the levels of interferon-alpha (INF-α), interferon-gamma (INF-γ) and tumor necrosis factor-alpha (TNF-α) were determined with ProcartaPlex Assays (ThermoFisher, Waltham, USA) and MAGPIX System (Merck KGaA, Darmstadt, Germany). […] Values reported are an average of runs from one to four donors.

[3] = target: T3, human wild type STING (WT STING); experiment: Digitonin assay using 293T wtSTING-FL reporter cells; format: cell-based; details: 293T wtSTING-FL cells, digitonin buffer 30 minutes, then 5 hours; ISRE firefly luciferase
Source text: as §4, §5, §6, §7
The medium was removed next day and three fold serial dilutions of compounds in Digitonin buffer containing 50 mmol·l^−1 HEPES (cat. #H3375, Sigma Aldrich, Czech Republic) pH 7.0, 100 mmol·l^−1 KCl, 3 mmol·l^−1 MgCl2, 0.1 mmol·l^−1 DTT (cat. #D0632, Sigma Aldrich, Czech Republic), 85 mmol·l^−1 Sucrose (cat. #S7903, Sigma Aldrich, Czech Republic), 0.2% BSA (cat. #A2153, Sigma Aldrich, Czech Republic), 1 mmol·l^−1 ATP (cat. #A1852, Sigma Aldrich, Czech Republic), 0.1 mmol·l^−1 GTP (cat. #G8877, Sigma Aldrich, Czech Republic), and 10 μg/mL Digitonin A (cat. #D141, Sigma Aldrich, Czech Republic) were added to the cells. The buffer was removed after 30 minutes incubation at 37° C. with 5% C02, the cells were washed once with 100 μl of cultivation medium, and 100 μl of medium was added to each well. The plates with cells were incubated for 5 hours at 37° C. with 5% CO2, 50 μl of the medium was removed and 30 μl of ONE-Glo™ Luciferase Assay System reagent (cat. #E6120, Promega, Madison, USA) was added to each well. Luminesce was read on Synergy H1 (Biotek, Winooski, USA).

T2 sequence (Q86WV6 140-343 G230A/H232R/R293Q): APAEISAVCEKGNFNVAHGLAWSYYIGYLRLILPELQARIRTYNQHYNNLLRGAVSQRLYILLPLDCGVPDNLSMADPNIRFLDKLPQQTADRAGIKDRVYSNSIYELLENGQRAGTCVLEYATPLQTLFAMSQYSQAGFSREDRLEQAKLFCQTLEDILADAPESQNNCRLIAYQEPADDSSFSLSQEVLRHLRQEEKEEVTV
T3 sequence (Q86WV6 whole entry H232R): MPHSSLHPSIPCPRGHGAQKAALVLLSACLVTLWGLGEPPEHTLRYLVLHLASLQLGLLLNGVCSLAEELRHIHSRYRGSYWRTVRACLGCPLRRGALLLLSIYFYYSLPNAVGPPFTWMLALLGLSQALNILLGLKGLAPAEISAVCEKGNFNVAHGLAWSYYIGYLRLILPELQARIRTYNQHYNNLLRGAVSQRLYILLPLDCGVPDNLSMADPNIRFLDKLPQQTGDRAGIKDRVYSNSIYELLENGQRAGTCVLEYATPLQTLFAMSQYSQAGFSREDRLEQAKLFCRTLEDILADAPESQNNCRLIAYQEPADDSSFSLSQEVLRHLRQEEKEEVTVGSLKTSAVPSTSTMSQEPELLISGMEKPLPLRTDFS
T1 sequence (Q86WV6 140-343 H232R): as the sequence (Q86WV6 140-343 G230A/H232R/R293Q) above, with A91G, Q154R counted along it

SMILES	DSF ΔTm WT STING (WT STING)	DSF ΔTm AQ STING (AQ STING (G230A-R293Q))	EC50 [1]	EC50 ([2]; read-out: PBMC EC50 IFN-α)	EC50 ([2]; read-out: PBMC EC50 IFN-γ)	EC50 ([2]; read-out: PBMC EC50 TNF-α)	EC50 [3]
Nc1ncnc2c1ncn2[C@@H]1O[C@@H]2COP(=O)(S)O[C@H]3[C@@H](F)[C@H](n4cnc5c(N)ncnc54)O[C@@H]3COP(=O)(O)CO[C@H]2[C@H]1F (single isomer, unassigned) [Compound 11a]	4.8 °C	9.3 °C	4.5 µM	400 µM	130 µM	90 µM	0.01 µM
Nc1ncnc2c1ncn2[C@@H]1O[C@@H]2COP(=O)(S)O[C@H]3[C@@H](F)[C@H](n4cnc5c(N)ncnc54)O[C@@H]3COP(=O)(O)CO[C@H]2[C@H]1F (single isomer, unassigned) [Compound 11b]	13.6 °C	18.2 °C	1.4 µM	123 µM	> 125 µM	118 µM	0.05 µM
Nc1ncnc2c1ncn2[C@@H]1O[C@@H]2COP(=O)(S)O[C@H]3[C@@H](F)[C@H](n4cnc5c(N)ncnc54)O[C@@H]3COP(=O)(S)CO[C@H]2[C@H]1F (single isomer, unassigned) [Compound 14b]	8.6 °C	16.7 °C	0.2 µM	46 µM	33 µM	23 µM	0.01 µM
Nc1ncnc2c1ncn2[C@@H]1O[C@@H]2COP(=O)(S)O[C@H]3[C@@H](F)[C@H](n4cnc5c(N)ncnc54)O[C@@H]3COP(=O)(S)CO[C@H]2[C@H]1F (single isomer, unassigned) [Compound 14c]	8.2 °C	17.6 °C	0.3 µM	68 µM	44 µM	51 µM	0.007 µM
Nc1ncnc2c1ncn2[C@@H]1O[C@@H]2COP(=O)(O)O[C@H]3[C@@H](F)[C@H](n4cnc5c(N)ncnc54)O[C@@H]3COP(=O)(O)CO[C@H]2[C@H]1F [Compound 21, (2R,3R,3aR,7aR,9R,10R,10aR,15aR)-2,9-bis(6-amino-9H-purin-9-yl)-3,10-difluoro-5,13-dihydroxydecahydro-2H-difuro[3,2-d:3′,2′-k][1,3,7,10]tetraoxa[2,8]diphosphacyclotridecine 5,13-dioxide]	9.4 °C	16.1 °C	3.1 µM	100 µM	26 µM	50 µM	0.01 µM
